Results published in PubChem BioAssay (NCI).
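Test compounds were applied to cells in 96-well plates for 48 hours at 5 doses. TGI denotes the concentration required for complete inhibition of growth.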

How the values were obtained:
Test in all cases: inhibition of tumour cell growth, NCI panel, 48 h
[1] = tested on: SNB-78 CNS
[2] = tested on: HOP-92 NSCLC
[3] = tested on: SW-620 colon
[4] = tested on: NCI-H226 lung
[5] = tested on: LOX IMVI melanoma
[6] = tested on: 786-0 renal
[7] = tested on: DLD-1 colon
[8] = tested on: SN12C renal
[9] = tested on: KM12 colon
[10] = tested on: SF-295 CNS
[11] = tested on: HCC-2998 colon
[12] = tested on: OVCAR-5 ovarian
[13] = tested on: HT29 colon
[14] = tested on: TK-10 renal
[15] = tested on: A498 renal
[16] = tested on: HL-60(TB) leukemia
[17] = tested on: SNB-75 CNS
[18] = tested on: K-562 leukemia
[19] = tested on: OVCAR-8 ovarian
[20] = tested on: UACC-62 melanoma
[21] = tested on: SK-MEL-5 melanoma
[22] = tested on: NCI-H23 lung
[23] = tested on: SF-268 CNS
[24] = tested on: COLO 205 colon
[25] = tested on: EKVX NSCLC
[26] = tested on: MALME-3M melanoma
[27] = tested on: CCRF-CEM leukemia
[28] = tested on: NCI-H460 lung
[29] = tested on: DMS 114 small cell lung
[30] = tested on: M19-MEL melanoma
[31] = tested on: HCT-116 colon
[32] = tested on: OVCAR-4 ovarian
[33] = tested on: A549 NSCLC
[34] = tested on: SK-MEL-28 melanoma
[35] = tested on: SF-539 CNS
[36] = tested on: CAKI-1 renal
[37] = tested on: ACHN renal
[38] = tested on: DMS 273 small cell lung
[39] = tested on: UACC-257 melanoma
[40] = tested on: XF 498 CNS
[41] = tested on: SK-MEL-2 melanoma
[42] = tested on: HOP-18 NSCLC
[43] = tested on: IGROV1 ovarian
[44] = tested on: UO-31 renal
[45] = tested on: RXF 393 renal
[46] = tested on: MOLT-4 leukemia
[47] = tested on: SNB-19 CNS
[48] = tested on: RXF-631 renal
[49] = tested on: M14 melanoma
[50] = tested on: U251 CNS
[51] = tested on: KM20L2 colon
[52] = tested on: SR leukemia
[53] = tested on: NCI-H522 lung
[54] = tested on: SK-OV-3 ovarian
[55] = tested on: HOP-62 NSCLC

## CC1=CCC23C(C1)OC(Br)(C=CC2(C)O)C3(C)C (stereo not drawn)
[1]
  TGI: > 100 µM
[2]
  TGI: > 100 µM
[3]
  TGI: > 100 µM
[4]
  TGI: > 100 µM
[5]
  TGI: > 100 µM
[6]
  TGI: > 100 µM
[7]
  TGI: > 100 µM
[8]
  TGI: > 100 µM
[9]
  TGI: > 100 µM
[10]
  TGI: > 100 µM
[11]
  TGI: > 100 µM
[12]
  TGI: > 100 µM
[13]
  TGI: > 100 µM
[14]
  TGI: > 100 µM
[15]
  TGI: > 100 µM
[16]
  TGI: > 100 µM
[17]
  TGI: > 100 µM
[18]
  TGI: > 100 µM
[19]
  TGI: > 100 µM
[20]
  TGI: > 100 µM
[21]
  TGI: > 100 µM
[22]
  TGI: > 100 µM
[23]
  TGI: > 100 µM
[24]
  TGI: > 100 µM
[25]
  TGI: > 100 µM
[26]
  TGI: > 100 µM
[27]
  TGI: > 100 µM
[28]
  TGI: > 100 µM
[29]
  TGI: > 100 µM
[30]
  TGI: > 100 µM
[31]
  TGI: > 100 µM
[32]
  TGI: > 100 µM
[33]
  TGI: > 100 µM
[34]
  TGI: > 100 µM
[35]
  TGI: > 100 µM
[36]
  TGI: > 100 µM
[37]
  TGI: > 100 µM
[38]
  TGI: > 100 µM
[39]
  TGI: > 100 µM
[40]
  TGI: > 100 µM
[41]
  TGI: > 100 µM
[42]
  TGI: > 100 µM
[43]
  TGI: > 100 µM

## CC(=O)O[C@H]1CCC(C)=CCC[C@@]2(C)C(CC[C@@H]2[C@@H](C)/C=C/C(C)C)c2ccc(cc2C(=O)O)C1 (stereo partly drawn)
[44]
  TGI: 9.82 µM
[45]
  TGI: 7.67 µM
[1]
  TGI: 10.1 µM
[2]
  TGI: 13.3 µM
[46]
  TGI: 4.79 µM
[47]
  TGI: 13 µM
[9]
  TGI: 16.5 µM
[10]
  TGI: 8.43 µM
[48]
  TGI: 24.5 µM
[12]
  TGI: 8.43 µM
[13]
  TGI: 13.6 µM
[14]
  TGI: 13.7 µM
[49]
  TGI: 20.3 µM
[15]
  TGI: 19.8 µM
[50]
  TGI: 8.25 µM
[16]
  TGI: 3.86 µM
[18]
  TGI: 11.9 µM
[19]
  TGI: 14 µM
[20]
  TGI: 3.79 µM
[51]
  TGI: 14.1 µM
[22]
  TGI: 6.63 µM
[52]
  TGI: 7.61 µM
[53]
  TGI: 6.47 µM
[25]
  TGI: 30.5 µM
[54]
  TGI: 13.8 µM
[27]
  TGI: 12.2 µM
[28]
  TGI: 10.8 µM
[30]
  TGI: 14 µM
[31]
  TGI: 11.9 µM
[55]
  TGI: 7.49 µM
[34]
  TGI: 16.9 µM
[37]
  TGI: 15.5 µM
[38]
  TGI: 13.3 µM
[39]
  TGI: 14.8 µM
[43]
  TGI: 8.53 µM
